# In US12624068B2, “Exon skipping by peptide nucleic acid derivatives” (OliPass Corporation, priority 2016, dated 2026):
# {Fethoc} = N-terminal Fethoc cap; [C(1O2)] = modified PNA monomer acting as cytosine, C(pOq) type, 1O2; [A(5)] = modified PNA monomer acting as adenine, A(p) type, p=5; [G(5)] = modified PNA monomer acting as guanine, G(p) type, p=5; {NH2} = C-terminal amide
# Assays:
# 10-mer complementary DNA = assay: Tm between PNA derivatives and 10-mer complementary DNA (N- or C-terminal); assay type: binding; conditions: uncorrected
# Outline: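 4 μM 10-mer PNA with 4 μM complementary 10-mer DNA in pH 7.16 buffer (10 mM sodium phosphate, 100 mM NaCl) was heated at 90 °C for a minute, slowly cooled to ambient, then Tm measured by UV absorbance at 260 nm.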
# Nav1.7 protein = assay: Nav1.7 western blot in rat L5 DRG neuronal cells; assay type: cell-based; conditions: rat DRG neuronal cells (L5/L6 ligation)
# Description: “SCN-ASO 30” was evaluated for its ability to inhibit the expression of Nav1.7 protein in rat DRG neuronal cells as described below.
# [Preparation of DRG Neuronal Cells] Male SD rats (7 weeks old) were subjected to tight “L5/L6 ligation”. 7 days later, 4 rats were anesthetized with zoletil/rompun to sample the L5 DRG of the ligated side. The DRGs were pooled and processed to prepare DRG neuronal cells as described in “SCN9A Example 12”.
# [ASO Treatment] DRG neuronal cells were treated with “SCN-ASO 30” at 0 (negative control), 10, 100 or 1,000 zM for 24 hours, and then subjected to lysis for western blot against a Nav1.7 antibody (Cat. No. ab85015, Abcam) probing the C-terminal of the Nav1.7 protein. β-actin was probed for reference.
# [1] = test system: sodium current in rat L5 DRG neuronal cells; assay: Manual patch clamp sodium current in rat L5 DRG neuronal cells; assay type: cell-based; conditions: rat L5 DRG neuronal cells (L5/L6 ligation), small size, 100 zM, 4 hours
# Description: “SCN-ASO 30” was evaluated for its ability to inhibit the sodium current in rat L5 DRG neuronal cells stimulated with L5/L6 ligation as provided below.
# [Preparation of DRG Neuronal Cells] Male SD rats (6 weeks old) were subjected to tight “L5/L6 ligation”. 7 days later, rats were anesthetized with zoletil/rompun for the extraction of L5 DRG of the ligated side. […]
# full-length SCN9A mRNA = assay: SCN9A qPCR by cDNA synthesis with random hexamers in rat L5 DRG cells; assay type: cell-based; conditions: 24 hours
# Description: “SCN-ASO 30” was evaluated by SCN9A qPCR for its ability to inhibit the expression of the SCN9A mRNA in rat L5 DRG cells. Total RNA was prepared as described in “SCN9A Example 15”, and subjected to cDNA synthesis using random hexamers.
# The cDNA solutions were also subjected to qPCR amplification for the GAPDH mRNA. The Ct values of the SCN9A mRNA were normalized against the Ct values of GAPDH mRNA.
# human AR pre-mRNA = assay: AR nested PCR for exon skipping in MCF7 cells; assay type: cell-based; conditions: 3 hours
# Description: “AR-ASO 1” was evaluated by AR nested PCR for its ability to induce the skipping of exon 5 of the human AR mRNA in MCF7 cells as follows. [Cell Culture & ASO Treatment] MCF7 cells (Cat. Number: HTB-22, ATCC) were maintained in EMEM medium supplemented with 10% FBS, 1% streptomycin/penicillin, and 0.01 mg/mL bovine insulin under 5% CO2 atmosphere at 37° C. Cells grown in 60 mm culture dish were treated with “AR-ASO 1” for 3 hours at 0 (negative control), 3, 30, 300 or 3,000 aM (i.e., 3 fM). [RNA Extraction] Total RNA was extracted using “Universal RNA Extraction Kit” (Cat. No. 9767, Takara) according to the manufacturer's instructions [cDNA Synthesis by One Step RT-PCR] […] NO: 55); and AR-exon 9_reverse: (5'→3') […] [Nested PCR Amplification] Throughout the amplification process, was used a unique amplification technique (touch up as increasing annealing temperature per cycle) that worked efficiently and specifically over a temperature range, rather than at one specific annealing temperature (i.e., conventional PCR method). […] NO: 57); and AR-exon 7n_reverse: (5'→3') […] […] The bands of target size were collected and analyzed by Sanger Sequencing. […] “AR-ASO 1” was evaluated for its exon skipping ability in MCF7 cells grossly showing the morphology of cumulus shape as described in “AR Example 1”, unless noted otherwise. […]
# AR protein = assay: AR western blot in MCF7 cells; assay type: cell-based, human; conditions: 10 zM to 30 aM, 48 hours
# Description: 4 culture dishes for the negative control. 48 hours later, cells were washed 2× with cold PBS, and then subjected to lysis with 200 μL 1× cell lysis buffer (Cat. No. 9803, Cell Signaling Tech) supplemented with 1× protease inhibitors (Cat. No. P8340, Sigma). The lysates were collected in 1.5 mL e-tube. 200 μL of each lysate was mixed with 100 μL 3× sample buffer, and boiled for 5 min. 20 μL of each lysate (4 negative controls and 8 ASO treatment samples) was subjected to electrophoretic separation on a 8% SDS-PAGE gel, and transferred onto a PVDF membrane. The membrane was probed with an anti-AR antibody (Cat. Number 5153, Cell Signaling Tech) and an anti-3-actin antibody (Cat. Number sc4778, Santa Cruz).
# AR mRNA = assay: qPCR by SYBR Green for AR mRNA in MCF7 cells; conditions: 5 hours
# Description: [ASO Treatment and RNA Extraction] […] (2 culture dishes per concentration) 5 hours later, total RNA was extracted using “MiniBEST Universal RNA Extraction Kit” according to the manufacturer's instructions (Cat. Number 9767, Takara).
# [cDNA Synthesis with OligodT]
# The PCR reactions were probed by SYBR Green (Takara, Japan).
Substance,"Tm Value, 10-mer DNA against C-Terminal (10-mer complementary DNA)","Tm Value, 10-mer DNA against N-Terminal (10-mer complementary DNA)","full-length Nav1.7 protein band at 220-240K (Nav1.7 protein; 10 zM, 24 hours)","Nav1.7 expression by western blot (Nav1.7 protein; 100 and 1,000 zM, 24 hour)","decrease of sodium current (manual patch clamp, normalized against cell size) [1]","decrease of full-length SCN9A mRNA expression level (random hexamers, normalized against GAPDH) (full-length SCN9A mRNA)","skipping of AR exon 5 by nested PCR (human AR pre-mRNA; MCF7 cells of cumulus shape morphology, 30, 100 or 1,000 aM)","AR exon skipping by nested PCR (human AR pre-mRNA; MCF7 cells, 3, 30, 300 or 3,000 aM)",AR band (120K size) intensity by western blot (AR protein),"AR exon levels (SYBR Green), rebound (AR mRNA; 1 aM (1,000 zM))",decrease of AR exon 4-6 levels (SYBR Green) (AR mRNA; 100 zM)
"Fethoc-AA(5)G-TG(5)T-A(5)CC(1O2)-TA(5)A-A(5)G-NH2 (AAGTGTACCTAAAG; all peptide nucleic acid (PNA), [A(5)] at 2, 7, 11, 13, [G(5)] at 5, [C(1O2)] at 9, 5' {Fethoc}, 3' {NH2}; peptide nucleic acid written N to C) [SCN-ASO 30]",74.0 °C,79.0 °C,detected,markedly inhibited,~90%,45-75%,–,–,–,–,–
"Fethoc-C(1O2)TT-A(5)CC-A(5)GG-C(1O2)AA(5)-G-NH2 (antisense CTTACCAGGCAAG; all peptide nucleic acid (PNA), [C(1O2)] at 1, 10, [A(5)] at 4, 7, 12, 5' {Fethoc}, 3' {NH2}; peptide nucleic acid backbone) [AR-ASO 1]",81.3 °C,86.1 °C,–,–,–,–,distinctively predominant,"induce the skipping of exon 5, exons 4-5, and exons 4-6",weaker than the intensity of their neighboring lysates,rebounded close toward the negative control levels,40-50%
